Test results published in ChEMBL document CHEMBL5528027, “Target identification, and optimization of dioxygenated amide derivatives as potent antibacterial agents with FabH inhibitory activity” (Eur J Med Chem, 2024).
In brackets after ≈: the same amount, converted by molar mass.

Key:
Escherichia coli = assay: Antibacterial activity against Escherichia coli assessed as reduction in bacterial growth measured after 24 hrs by two-fold serial dilution method; format: functional
Pseudomonas aeruginosa = assay: Antibacterial activity against Pseudomonas aeruginosa assessed as reduction in bacterial growth measured after 24 hrs by two-fold serial dilution method; format: functional
Bacillus subtilis = assay: Antibacterial activity against Bacillus subtilis assessed as reduction in bacterial growth measured after 24 hrs by two-fold serial dilution method; format: functional
Staphylococcus aureus = assay: Antibacterial activity against Staphylococcus aureus assessed as reduction in bacterial growth measured after 24 hrs by two-fold serial dilution method; format: functional
Klebsiella pneumoniae = assay: Antibacterial activity against Klebsiella pneumoniae assessed as reduction in bacterial growth measured after 24 hrs by two-fold serial dilution method; format: functional
Streptococcus pneumoniae = assay: Antibacterial activity against Streptococcus pneumoniae assessed as reduction in bacterial growth measured after 24 hrs by two-fold serial dilution method; format: functional
[1] = target: T1, Beta-ketoacyl-[acyl-carrier-protein] synthase III (Escherichia coli K-12, UniProt P0A6R0); assay: Inhibition of Escherichia coli FabH
T1 sequence (P0A6R0 whole entry): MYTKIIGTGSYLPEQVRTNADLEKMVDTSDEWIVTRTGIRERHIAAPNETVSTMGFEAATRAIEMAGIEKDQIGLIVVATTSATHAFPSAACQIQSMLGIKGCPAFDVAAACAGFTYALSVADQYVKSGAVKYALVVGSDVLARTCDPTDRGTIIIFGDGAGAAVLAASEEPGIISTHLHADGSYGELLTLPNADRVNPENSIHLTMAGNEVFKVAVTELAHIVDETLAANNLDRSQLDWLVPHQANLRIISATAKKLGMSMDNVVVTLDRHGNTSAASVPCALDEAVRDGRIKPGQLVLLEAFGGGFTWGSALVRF

Erythrocyte = assay: Hemolytic activity in human erythrocytes assessed as hemolysis by spectrophotometric analysis; format: toxicity, cell-based
[2] = Cytotoxicity against mouse NIH3T3 cells incubated for 24 hrs by MTT analysis; format: toxicity, cell-based

| SMILES | MIC (Escherichia coli) [µg/mL] | MIC (Pseudomonas aeruginosa) [µg/mL] | MIC (Bacillus subtilis) [µg/mL] | MIC (Staphylococcus aureus) [µg/mL] | MIC (Klebsiella pneumoniae) [µg/mL] | MIC (Streptococcus pneumoniae) [µg/mL] | IC50 [1] [µM] | HC30 (Erythrocyte) [µg/mL] | IC50 at 24 h [2] [µM] |
| --- | --- | --- | --- | --- | --- | --- | --- | --- | --- |
| COc1ccc(NC(=O)c2ccc3c(c2)OCCCO3)c2ncccc12 | > 100 | 50 (≈ 143 µM) | > 100 | > 100 | > 100 | 50 (≈ 143 µM) | – | – | – |
| CCOC(=O)c1c(NC(=O)c2ccc3c(c2)OCCCO3)sc2c1CCCC2 | > 100 | 50 (≈ 125 µM) | 50 (≈ 125 µM) | > 100 | 50 (≈ 125 µM) | 50 (≈ 125 µM) | – | – | – |
| O=C(c1ccc2c(c1)OCCCO2)N1CCN(C(=O)c2ccc3c(c2)OCCCO3)CC1 | > 100 | > 100 | 50 (≈ 114 µM) | > 100 | > 100 | > 100 | – | – | – |
| COc1cc(NC(=O)c2ccc3c(c2)OCCCO3)c2ncccc2c1 | 50 (≈ 143 µM) | 50 (≈ 143 µM) | > 100 | 50 (≈ 143 µM) | 50 (≈ 143 µM) | > 100 | – | – | – |
| O=C(c1ccc2c(c1)OCCCO2)N1CCN(Cc2ccccc2)CC1 | 50 (≈ 142 µM) | 50 (≈ 142 µM) | > 100 | 50 (≈ 142 µM) | 25 (≈ 70.9 µM) | 25 (≈ 70.9 µM) | – | – | – |
| O=C(Nc1ccnc2ccccc12)c1ccc2c(c1)OCCCO2 | 50 (≈ 156 µM) | 50 (≈ 156 µM) | 50 (≈ 156 µM) | 25 (≈ 78 µM) | 50 (≈ 156 µM) | 50 (≈ 156 µM) | – | – | – |
| O=C(Nc1cccc2ncccc12)c1ccc2c(c1)OCCCO2 | 50 (≈ 156 µM) | 25 (≈ 78 µM) | 50 (≈ 156 µM) | 50 (≈ 156 µM) | 25 (≈ 78 µM) | 25 (≈ 78 µM) | – | – | – |
| O=C(NCCc1nc2ccccc2[nH]1)c1ccc2c(c1)OCCCO2 | 25 (≈ 74.1 µM) | 50 (≈ 148 µM) | 25 (≈ 74.1 µM) | > 100 | > 100 | 50 (≈ 148 µM) | – | – | – |
| O=C(c1ccc2c(c1)OCCCO2)N1CCCC1 | > 100 | 50 (≈ 202 µM) | > 100 | > 100 | > 100 | > 100 | – | – | – |
| O=C(Nc1ccc2ccccc2n1)c1ccc2c(c1)OCCCO2 | 25 (≈ 78 µM) | 25 (≈ 78 µM) | 25 (≈ 78 µM) | 25 (≈ 78 µM) | 50 (≈ 156 µM) | 25 (≈ 78 µM) | – | – | – |
| O=C(c1ccc2c(c1)OCCCO2)N1CCN(CCO)CC1 | 50 (≈ 163 µM) | 25 (≈ 81.6 µM) | > 100 | 25 (≈ 81.6 µM) | > 100 | 25 (≈ 81.6 µM) | – | – | – |
| CCN1CCN(C(=O)c2ccc3c(c2)OCCCO3)CC1 | 25 (≈ 86.1 µM) | 50 (≈ 172 µM) | > 100 | 25 (≈ 86.1 µM) | 50 (≈ 172 µM) | 50 (≈ 172 µM) | – | – | – |
| O=C(Nc1nccc2ccccc12)c1ccc2c(c1)OCCCO2 | 50 (≈ 156 µM) | 50 (≈ 156 µM) | > 100 | 50 (≈ 156 µM) | 25 (≈ 78 µM) | > 100 | – | – | – |
| O=C(Nc1ccncn1)c1ccc2c(c1)OCCCO2 | 50 (≈ 184 µM) | 50 (≈ 184 µM) | > 100 | 50 (≈ 184 µM) | > 100 | 50 (≈ 184 µM) | – | – | – |

Further compounds by falling MIC (Escherichia coli), results first:

| MIC (Escherichia coli) [µg/mL] | MIC (Pseudomonas aeruginosa) [µg/mL] | MIC (Bacillus subtilis) [µg/mL] | MIC (Staphylococcus aureus) [µg/mL] | MIC (Klebsiella pneumoniae) [µg/mL] | MIC (Streptococcus pneumoniae) [µg/mL] | IC50 [1] [µM] | SMILES | HC30 (Erythrocyte) [µg/mL] | IC50 at 24 h [2] [µM] |
| --- | --- | --- | --- | --- | --- | --- | --- | --- | --- |
| 25 (≈ 87.9 µM) | 50 (≈ 176 µM) | > 100 | 50 (≈ 176 µM) | > 100 | > 100 | – | Cc1ccc(NC(=O)c2ccc3c(c2)OCCCO3)cn1 | – | – |
| 25 (≈ 70.9 µM) | 50 (≈ 142 µM) | 25 (≈ 70.9 µM) | 50 (≈ 142 µM) | 50 (≈ 142 µM) | > 100 | – | COc1ccc2[nH]cc(CNC(=O)c3ccc4c(c3)OCCCO4)c2c1 | – | – |
| 25 (≈ 95 µM) | 25 (≈ 95 µM) | 25 (≈ 95 µM) | 12.5 (≈ 47.5 µM) | 12.5 (≈ 47.5 µM) | 50 (≈ 190 µM) | – | O=C(c1ccc2c(c1)OCCCO2)N1CCOCC1 | – | – |
| 25 (≈ 92.5 µM) | 50 (≈ 185 µM) | > 100 | 50 (≈ 185 µM) | 25 (≈ 92.5 µM) | 50 (≈ 185 µM) | – | O=C(Nc1cccnc1)c1ccc2c(c1)OCCCO2 | – | – |
| 25 (≈ 81.8 µM) | 25 (≈ 81.8 µM) | 25 (≈ 81.8 µM) | 25 (≈ 81.8 µM) | 25 (≈ 81.8 µM) | 50 (≈ 164 µM) | – | O=C(Nc1cncc(Cl)n1)c1ccc2c(c1)OCCCO2 | – | – |
| 25 (≈ 95.7 µM) | 25 (≈ 95.7 µM) | 12.5 (≈ 47.8 µM) | 25 (≈ 95.7 µM) | 25 (≈ 95.7 µM) | 25 (≈ 95.7 µM) | – | O=C(c1ccc2c(c1)OCCCO2)N1CCCCC1 | – | – |
| 12.5 (≈ 46.2 µM) | 50 (≈ 185 µM) | 25 (≈ 92.5 µM) | 50 (≈ 185 µM) | 50 (≈ 185 µM) | > 100 | – | O=C(Nc1ccccn1)c1ccc2c(c1)OCCCO2 | – | – |
| 12.5 (≈ 39 µM) | 25 (≈ 78 µM) | 12.5 (≈ 39 µM) | 25 (≈ 78 µM) | 50 (≈ 156 µM) | 25 (≈ 78 µM) | – | O=C(Nc1cccc2cccnc12)c1ccc2c(c1)OCCCO2 | – | – |
| 12.5 (≈ 37.4 µM) | 12.5 (≈ 37.4 µM) | 25 (≈ 74.8 µM) | 12.5 (≈ 37.4 µM) | 50 (≈ 150 µM) | 25 (≈ 74.8 µM) | – | Cc1ccc2cccc(NC(=O)c3ccc4c(c3)OCCCO4)c2n1 | – | – |
| 12.5 (≈ 43.2 µM) | 25 (≈ 86.4 µM) | 25 (≈ 86.4 µM) | 25 (≈ 86.4 µM) | – | – | – | CC1(CCCNC(=O)c2ccc3c(c2)OCCCO3)N=N1 | – | – |
| 6.25 (≈ 19.9 µM) | 6.25 (≈ 19.9 µM) | 6.25 (≈ 19.9 µM) | 6.25 (≈ 19.9 µM) | – | – | – | C#CCCC1(CCNC(=O)c2ccc3c(c2)OCCCO3)N=N1 | – | – |
| 6.25 (≈ 18.3 µM) | 12.5 (≈ 36.5 µM) | 25 (≈ 73 µM) | 25 (≈ 73 µM) | 25 (≈ 73 µM) | 25 (≈ 73 µM) | 26.8 | CCOC(=O)c1cccnc1NC(=O)c1ccc2c(c1)OCCCO2 | > 10 | 147 |
| 6.25 (≈ 22.6 µM) | 3.13 (≈ 11.3 µM) | 6.25 (≈ 22.6 µM) | 3.13 (≈ 11.3 µM) | 6.25 (≈ 22.6 µM) | 12.5 (≈ 45.2 µM) | 38.2 | CN1CCN(C(=O)c2ccc3c(c2)OCCCO3)CC1 | > 10 | 175 |
| 6.25 (≈ 22.7 µM) | 6.25 (≈ 22.7 µM) | 12.5 (≈ 45.4 µM) | 6.25 (≈ 22.7 µM) | – | – | – | CC1(CCNC(=O)c2ccc3c(c2)OCCCO3)N=N1 | – | – |
| 6.25 (≈ 20 µM) | > 100 | 50 (≈ 160 µM) | 50 (≈ 160 µM) | 25 (≈ 80 µM) | > 100 | 46.4 | CC(=O)c1cccnc1NC(=O)c1ccc2c(c1)OCCCO2 | > 10 | 128 |
| 3.13 (≈ 9.25 µM) | 6.25 (≈ 18.5 µM) | > 100 | 50 (≈ 148 µM) | 6.25 (≈ 18.5 µM) | 25 (≈ 73.9 µM) | 8.6 | O=C(Nc1ccc(C(F)(F)F)cn1)c1ccc2c(c1)OCCCO2 | > 10 | 204 |
| 3.13 (≈ 6.47 µM) | 3.13 (≈ 6.47 µM) | 1.56 (≈ 3.23 µM) | 1.56 (≈ 3.23 µM) | 3.13 (≈ 6.47 µM) | 50 (≈ 103 µM) | – | NC[C@H]1O[C@H](O[C@H]2[C@H](O)[C@@H](O[C@H]3O[C@H](CO)[C@@H](O)[C@H](N)[C@H]3O)[C@H](N)C[C@@H]2N)[C@H](N)[C@@H](O)[C@@H]1O [BEKANAMYCIN] | – | – |
| 3.13 (≈ 10.2 µM) | 6.25 (≈ 20.3 µM) | 12.5 (≈ 40.5 µM) | 6.25 (≈ 20.3 µM) | 3.13 (≈ 10.2 µM) | 12.5 (≈ 40.5 µM) | 13.1 | O=C(Nc1ccc2cc[nH]c2c1)c1ccc2c(c1)OCCCO2 | > 10 | 198 |
| 1.56 (≈ 4.4 µM) | 1.56 (≈ 4.4 µM) | 12.5 (≈ 35.2 µM) | 3.13 (≈ 8.82 µM) | 3.13 (≈ 8.82 µM) | 12.5 (≈ 35.2 µM) | 4.9 | O=C(Nc1cc(Cl)cc2cccnc12)c1ccc2c(c1)OCCCO2 | > 10 | 115 |
